Assay [1] concerns fluoroquinolone-resistant S. aureus ATCC 700699. As to the kind of experiment: Minimum inhibitory concentration (MIC) assay, broth microdilution, MRSA. It is filed as cell-based. To be noted: Staphylococcus aureus; fluoroquinolone-resistant S. aureus ATCC 700699; Table I; read-out: MRSA MIC. On the procedure:
(§1) The antimicrobial activity of the compounds of the invention may be evaluated by a number of methods, including the following visual minimum inhibitory concentration (MIC) assay. This assay determines the minimum concentration of compound required to inhibit growth of a bacterial strain.
(§2) Whole-cell antibacterial activity is determined by broth microdilution using conditions recommended by the NCCLS (see National Committee for Clinical Laboratory Standards. 2001. Performance standards for antimicrobial susceptibility testing: 11th informational supplement. Vol. 21, no. 1, M100-S11. National Committee for Clinical Laboratory Standards, Wayne, Pa.). Test compounds are dissolved in DMSO and diluted 1:50 in Mueller-Hinton II broth (Becton-Dickinson) to produce a 256 μg/ml stock solution. In a 96-well microtiter plate, the compound solution is serially two-fold diluted in Mueller-Hinton II broth. After the compounds are diluted, a 50 μl aliquot of the test organism (˜1×10^6 cfu/mL) is added to each well of the microtiter plate. The final test concentrations ranges from 0.125-128 μg/mL. Inoculated plates are incubated in ambient air at 37° C. for 18 to 24 hours. The organisms selected for testing included laboratory strains S. aureus ATCC 29213 and E. coli ATCC 25922 (strains purchased from American Type Culture Collection, Manassas, Va.) m, S. aureus FQR700699, and Paeruginosa 27853. The minimum inhibitory concentration (MIC) is determined as the lowest concentration of compound that inhibited visible growth of the test organism.
(In broth dilution the organism is exposed to a series of concentrations in liquid medium.)

Assay [2] relates to S. aureus ATCC 29213. In words: Minimum inhibitory concentration (MIC) assay, broth microdilution, MSSA. It counts as cell-based. The following applies: Staphylococcus aureus, Table I. On the procedure: as §1, §2

In brackets after ≈: the same amount, converted by molar mass.

With `COc1c(N2CCC[C@H](N)C2)c(F)cc2c(=O)c3c(O)c(C#N)sc3n(C3CC3)c12` [Cmp 54, (S)-7-(3-aminopiperidin-1-yl)-9-cyclopropyl-6-fluoro-3-hydroxyl-8-methoxy-4-oxo-4,9-dihydrothieno[2,3-b] quinoline-2-carbonitrile], the MIC (usually the smallest concentration in the dilution series that meets the test's criterion for growth inhibition) was 0.5 µg/mL (≈ 1.17 µM) in assay [1] and 0.13 µg/mL (≈ 0.303 µM) in assay [2].

Turning to `COc1c(N2CC[C@H](O)C2)c(F)cc2c(=O)c3c(O)c(C#N)sc3n(C3CC3)c12` [Cmp 23, (S)-9-cyclopropyl-6-fluoro-3-hydroxyl-7-(3-hydroxyl-pyrrolidin-1-yl)-8-methoxy-4-oxo-4,9-dihydrothieno [2,3-b]quinoline-2-carbonitrile], the figures for the MIC in assay [1] and in assay [2] were 0.5 µg/mL (≈ 1.2 µM) and 0.03 µg/mL (≈ 0.0722 µM), respectively. The corresponding values for `COc1c(N2CCNCC2)c(F)cc2c(=O)c3c(O)c(C(=O)C(C)(C)C)sc3n(C3CC3)c12` [Cmp 12, 9-cyclopropyl-6-fluoro-3-hydroxyl-8-methoxy-7-(piperazin-1-yl)-2-pivaloylthieno[2,3-b]quinolin 4(9H)-one] are 8 µg/mL (≈ 16.9 µM) and 8 µg/mL (≈ 16.9 µM). As to `CCNC(C)(C)[C@@H]1CCN(c2c(F)cc3c(=O)c4c(O)c(C#N)sc4n(C4CC4)c3c2OC)C1` [Cmp 35, (R)-9-cyclopropyl-7-(3-(2-(ethylamino)propan-2-yl)pyrrolidin-1-yl)-6-fluoro-3-hydroxyl-8-methoxy-4-oxo-4,9-dihydrothieno [2,3-b]quinoline-2-carbonitrile], the minimum inhibitory concentration (MIC) in assay [1] turned out to be 0.5 µg/mL (≈ 1.03 µM); in assay [2] it was 0.06 µg/mL (≈ 0.124 µM). On to `COc1c(N2CCNC(C(N)=O)C2)c(F)cc2c(=O)c3c(n(C4CC4)c12)SC(C#N)C3=O` (stereo not shown) [Cmp 52, 4-(2-cyano-9-cyclopropyl-6-fluoro-8-methoxy-3,4-dioxo-2,3,4,9-tetrahydrothieno[2,3-b]quinolin-7-yl) piperazine-2-carboxamide], for which the MIC in assay [1] stood at 2 µg/mL (≈ 4.37 µM); in assay [2], 0.25 µg/mL (≈ 0.546 µM). Consider `COC(=O)c1sc2c(c1O)c(=O)c1cc(F)c(N3CC[C@@H](C(C)(C)N)C3)c(OC)c1n2C1CC1` [Cmp 5, (R)-methyl 7-(3-(2-aminopropan-2-yl)pyrrolidin-1-yl)-9-cyclopropyl-6-fluoro-3-hydroxyl-8-methoxy-4-oxo-4,9-dihydrothieno [2,3-b]quinoline-2-carboxylate], for which the results for the MIC in assay [1] and in assay [2] were 64 µg/mL (≈ 131 µM) and 2 µg/mL (≈ 4.09 µM), respectively.

On to `COc1c(C2=CCNCC2)c(F)cc2c(=O)c3c(O)c(C#N)sc3n(C3CC3)c12` [Cmp 40], for which the results for the MIC in assay [1] and in assay [2] were 4 µg/mL (≈ 9.72 µM) and 0.5 µg/mL (≈ 1.22 µM), respectively. On the same counts, the results for `COc1c(N2CCC(N)CC2)c(F)cc2c(=O)c3c(O)c(C#N)sc3n(C3CC3)c12` [Cmp 29, 7-(4-aminopiperidin-1-yl)-9-cyclopropyl-6-fluoro-3-hydroxyl-8-methoxy-4-oxo-4,9-dihydrothieno[2,3-b]quinoline-2-carbonitrile] are 0.5 µg/mL (≈ 1.17 µM) and 0.03 µg/mL (≈ 0.07 µM).

Take `COc1c(N2CC[C@@H](C(C)(C)N)C2)c(F)cc2c(=O)c3c(O)c(C(N)=O)sc3n(C3CC3)c12` [Cmp 32, (R)-7-(3-(2-aminopropan-2-yl)pyrrolidin-1-yl)-9-cyclopropyl-6-fluoro-3-hydroxyl-8-methoxy-4-oxo-4,9-dihydrothieno [2,3-b]quinoline-2-carboxamide]: the MIC in assay [1] was 0.5 µg/mL (≈ 1.05 µM); in assay [2], 0.13 µg/mL (≈ 0.274 µM). On the same counts, the results for `CCC(=O)c1sc2c(c1O)c(=O)c1cc(F)c(N3CC[C@@H](C(C)(C)N)C3)c(OC)c1n2C1CC1` [Cmp 62, (R)-7-(3-(2-aminopropan-2-yl)pyrrolidin-1-yl)-9-cyclopropyl-6-fluoro-3-hydroxyl-8-methoxy-2-propionylthieno [2,3-b]quinolin-4(9H)-one] are 1 µg/mL (≈ 2.05 µM) and 0.5 µg/mL (≈ 1.03 µM). As to `COc1c(N2CC(O)C2)c(F)cc2c(=O)c3c(O)c(C#N)sc3n(C3CC3)c12` [Cmp 24, 9-cyclopropyl-6-fluoro-3-hydroxyl-7-(3-hydroxylazetidin-1-yl)-8-methoxy-4-oxo-4,9-dihydrothieno[2,3-b]quinoline-2-carbonitrile], the MIC in assay [1] came to 1 µg/mL (≈ 2.49 µM); in assay [2] it was 0.06 µg/mL (≈ 0.149 µM). Turning to `COc1c(N2CCNCC2)c(F)cc2c(=O)c3c(O)c(C(=O)C(F)(F)F)sc3n(C3CC3)c12` [Cmp 20, 9-cyclopropyl-6-fluoro-3-hydroxyl-8-methoxy-7-(piperazin-1-yl)-2-(2,2,2-trifluoroacetyl)thieno[2,3-b]quinolin-4(9H)-one], the MIC in assay [1] is over 64 µg/mL; in assay [2], 64 µg/mL (≈ 132 µM).

In the case of `COc1c(-c2ccnc(C)c2)c(F)cc2c(=O)c3c(O)c(C#N)sc3n(C3CC3)c12` [Cmp 4, 9-cyclopropyl-6-fluoro-3-hydroxyl-8-methoxy-7-(2-methylpyridin-4-yl)-4-oxo-4,9-dihydrothieno[2,3-b]quinoline-2-carbonitrile], the MIC turned out to be 0.13 µg/mL (≈ 0.308 µM) in assay [1] and 0.02 µg/mL (≈ 0.0475 µM) in assay [2].

In the case of `COc1c(N2CC[C@@H]([C@H](C)NCCF)C2)c(F)cc2c(=O)c3c(O)c(C#N)sc3n(C3CC3)c12` [Cmp 1, 9-cyclopropyl-6-fluoro-7-((R)-3-((S)-1-(2-fluoroethylamino)ethyl)pyrrolidin-1-yl)-3-hydroxyl-8-methoxy-4-oxo-4,9-dihydrothieno[2,3-b]quinoline-2-carbonitrile], the MIC in assay [1] is 0.13 µg/mL (≈ 0.266 µM); in assay [2], 0.02 µg/mL (≈ 0.0409 µM). In the case of `COc1c(N2CC3CC2CN3)c(F)cc2c(=O)c3c(O)c(C#N)sc3n(C3CC3)c12` (stereo not shown) [Cmp 41, 7-(2,5-diazabicyclo[2.2.1]heptan-2-yl)-9-cyclopropyl-6-fluoro-3-hydroxyl-8-methoxy-4-oxo-4,9-dihydrothieno [2,3-b]quinoline-2-carbonitrile], the MIC in assay [1] came to 1 µg/mL (≈ 2.34 µM); in assay [2] it was 0.13 µg/mL (≈ 0.305 µM).

As for `COc1c(N2CCN(CC#N)CC2)c(F)cc2c(=O)c3c(O)c(C#N)sc3n(C3CC3)c12` [Cmp 55, 7-(4-(cyanomethyl)piperazin-1-yl)-9-cyclopropyl-6-fluoro-3-hydroxyl-8-methoxy-4-oxo-4,9-dihydrothieno [2,3-b]quinoline-2-carbonitrile], the MIC in assay [1] was 0.5 µg/mL (≈ 1.1 µM); in assay [2] it was 0.06 µg/mL (≈ 0.132 µM). With `COc1c(N2C[C@@H]3CCCN[C@@H]3C2)c(F)cc2c(=O)c3c(O)c(C#N)sc3n(C3CC3)c12` [Cmp 38, 9-cyclopropyl-6-fluoro-3-hydroxyl-8-methoxy-4-oxo-7-((4aS,7aS)-tetrahydro-1H-pyrrolo[3,4-b]pyridin-6(2H,7H,7aH)-yl)-4,9-dihydrothieno[2,3-b]quinoline-2-carbonitrile], the minimal inhibitory concentration (MIC) in assay [1] is 8 µg/mL (≈ 17.6 µM); in assay [2], 0.5 µg/mL (≈ 1.1 µM). On the same counts, the results for `COc1c(N2CCCC(=C(F)CN)C2)c(F)cc2c(=O)c3c(O)c(C(C)=O)sc3n(C3CC3)c12` [Cmp 66, 2-acetyl-7-(3-(2-amino-1-fluoroethylidene)piperidin-1-yl)-9-cycloprop-6-fluoro-3-hydroxyl-8-methoxythieno[2,3-b] quinolin-4(9H)-one] are 0.5 µg/mL (≈ 1.02 µM) and 0.25 µg/mL (≈ 0.511 µM). The compound `COc1c(N2CC[C@H](N)C2)c(F)cc2c(=O)c3c(O)c(C#N)[nH]c3n(C3CC3)c12` [Cmp 28, (S)-7-(3-aminopyrrolidin-l-yl)-9-cyclopropyl-6-fluoro-3-hydroxyl-8-methoxy-4-oxo-4,9-dihydro-1H-pyrrolo[2,3-b]quinoline-2-carbonitrile] had an MIC in assay [2] of 64 µg/mL (≈ 161 µM).

(Values after US8173636B2, “Hydroxylthienoquinolones and related compounds as anti-infective agents” (Achillion Pharmaceuticals, Inc., priority 2009, dated 2012).)
